This is an account of results in patent US7786141B2 (Vertex Pharmaceuticals Incorporated, priority 2004, dated 2010).

Molecules are shown by their SMILES.

Test [1] deals with T1, M4 muscarinic receptor (Homo sapiens, UniProt P08173).
T1 construct: expressed in transfected cells; host or cells: CHO (M4-CHO)
T1 sequence (P08173 1-479): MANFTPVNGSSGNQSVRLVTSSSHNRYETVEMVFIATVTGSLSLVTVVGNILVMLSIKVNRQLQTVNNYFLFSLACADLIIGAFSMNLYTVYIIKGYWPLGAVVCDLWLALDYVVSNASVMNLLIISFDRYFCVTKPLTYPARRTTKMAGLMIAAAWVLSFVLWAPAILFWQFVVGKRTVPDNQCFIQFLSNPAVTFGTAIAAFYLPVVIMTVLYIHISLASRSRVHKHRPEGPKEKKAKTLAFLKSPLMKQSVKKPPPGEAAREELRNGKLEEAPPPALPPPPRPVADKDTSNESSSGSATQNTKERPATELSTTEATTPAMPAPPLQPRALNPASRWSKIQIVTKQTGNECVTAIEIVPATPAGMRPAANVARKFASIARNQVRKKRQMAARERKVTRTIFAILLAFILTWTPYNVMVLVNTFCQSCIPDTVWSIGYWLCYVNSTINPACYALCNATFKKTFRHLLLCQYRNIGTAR
Description: Functional mobilization of intracellular calcium (FLIPR) in M4-CHO cells. Type of test: cell-based. Conditions: Table 4; for Emax: 100% efficacy is the maximum response obtained with the Carbachol control; for M4 Activity: modulating M4 receptor. The essentials:
(§1)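 Two modes: direct compound addition for agonism, or 15 min compound pre-incubation (or co-application) before carbachol at EC80 for inhibition. Calcium signal from Fluo-3 AM or Calcium 3 dye in CHO cells, 1 mM probenecid, pH 7.4, read 60 sec at 488/540 nm; DMSO 0.5% final.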
In general terms: Calcium flux is commonly read through the fluorescence of an indicator in the cells.

Test [2] addresses T2, M1 muscarinic receptor (Homo sapiens, UniProt P11229).
T2 construct: expressed in transfected cells; host or cells: CHO (M1-CHO)
T2 sequence (P11229 1-460): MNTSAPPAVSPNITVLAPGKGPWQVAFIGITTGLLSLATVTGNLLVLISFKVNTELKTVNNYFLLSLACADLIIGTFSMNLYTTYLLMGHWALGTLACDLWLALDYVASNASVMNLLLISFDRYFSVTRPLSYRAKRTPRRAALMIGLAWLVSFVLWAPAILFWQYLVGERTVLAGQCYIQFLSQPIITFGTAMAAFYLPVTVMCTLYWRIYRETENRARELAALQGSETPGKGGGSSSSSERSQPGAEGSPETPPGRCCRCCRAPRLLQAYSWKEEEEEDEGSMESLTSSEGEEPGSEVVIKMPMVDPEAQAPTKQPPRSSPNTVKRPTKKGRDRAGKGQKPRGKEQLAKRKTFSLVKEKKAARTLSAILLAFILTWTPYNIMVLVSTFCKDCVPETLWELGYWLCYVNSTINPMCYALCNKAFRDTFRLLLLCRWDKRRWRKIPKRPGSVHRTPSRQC
In words: Functional mobilization of intracellular calcium (FLIPR) in M1-CHO cells. Conditions: Table 4; for Emax: 100% efficacy is the maximum response obtained with the Carbachol control; for M1 Activity: modulating M1 receptor. Type of test: cell-based. The procedure, abridged:
as §1

As to `CCOC(=O)N1CCC(N2CCC3(CC2)CN(C(C)=O)c2cccc(OC)c23)CC1` [compound 560], in test [1], the Emax is < 25% and the “M4 Activity” value is on record as “x (activity was measured to be greater than 5.0 μM)”. Further, in test [2], the Emax was in the range of 25 to 100% and the “M1 Activity” value is given as “xxx (activity was measured to be less than 2.0 μM)”.
Regarding `CN(C)C(=O)N1CC2(CCN(C3CCN(c4ccsc4)CC3)CC2)c2cc(F)ccc21` [compound 561], in test [1], the Emax is 25 to 100%; the “M4 Activity” value is “xx (activity was measured to be between 2.0 μM and 5.0 μM)”. In test [2], the maximum response (Emax) lay within 25 to 100% and the “M1 Activity” value is “x (activity was measured to be greater than 5.0 μM)”.
For `C#Cc1ccc2c(c1)C1(CCN(C3CCN(C(=O)OCC)CC3)CC1)CN2C(C)=O` [compound 563], in test [1], the Emax lay within 25 to 100% and the “M4 Activity” value is “xxx (activity was measured to be less than 2.0 μM)”. For the same molecule, in test [2], the Emax was > 100% and the “M1 Activity” value is recorded as “xxx (activity was measured to be less than 2.0 μM)”.
As to `C#CCOC(=O)N1CC[C@@H](CN2CCC3(CC2)CN(C(C)=O)c2cccc(C)c23)C1` [compound 564], in test [1], the Emax lay within 25 to 100% and the “M4 Activity” value is given as “xxx (activity was measured to be less than 2.0 μM)”. In test [2], the Emax lay within 25 to 100% and the “M1 Activity” value was “xxx (activity was measured to be less than 2.0 μM)”.
On to `C#CCCOC(=O)N1CCC(N2CCC3(CC2)CN(CCOC)c2ccc(F)cc23)CC1` [compound 565], for which, in test [1], the Emax is 25 to 100% and the “M4 Activity” value was “xxx (activity was measured to be less than 2.0 μM)”. For the same molecule, in test [2], the Emax lay in the range of 25 to 100% and the “M1 Activity” value was “xxx (activity was measured to be less than 2.0 μM)”.
Turning to `COc1cc2c(cc1OC)C1(CCN(C3CC(C)(C)CC(C)(C)C3)CC1)CC2NC(C)=O` (stereo not drawn) [compound 566], in test [1], the Emax is < 25% and the “M4 Activity” value is reported as “x (activity was measured to be greater than 5.0 μM)”. Moreover, in test [2], the Emax is < 25% and the “M1 Activity” value was “x (activity was measured to be greater than 5.0 μM)”.
As for `CCOC(=O)N1CCC(N2CCC3(CC2)CN(c2ncccn2)c2ccc(F)cc23)CC1` [compound 567], in test [1], the Emax was in the range of 25 to 100% and the “M4 Activity” value is given as “xxx (activity was measured to be less than 2.0 μM)”. In test [2], the Emax lay in the range of 25 to 100% and the “M1 Activity” value is “xxx (activity was measured to be less than 2.0 μM)”.
Turning to `CC(=O)N[C@H]1CCC2(CCN(CCC3CCCCC3)CC2)c2ccccc21` [compound 568], in test [1], the Emax was < 25% and the “M4 Activity” value is “xxx (activity was measured to be less than 2.0 μM)”. In addition, in test [2], the Emax lay within 25 to 100% and the “M1 Activity” value is listed as “xxx (activity was measured to be less than 2.0 μM)”.
As to `COc1ccc([C@@H](C)N[C@H]2CC3(CCN(CC4CC5C=CC4C5)CC3)c3cc(Cl)ccc32)cc1` (stereo partly drawn) [compound 569], in test [1], the Emax was in the range of 25 to 100%; the “M4 Activity” value was “xx (activity was measured to be between 2.0 μM and 5.0 μM)”. Moreover, in test [2], the Emax lay in the range of 25 to 100%; the “M1 Activity” value was “xx (activity was measured to be between 2.0 μM and 5.0 μM)”.
In the case of `CN(C)C(=O)N1CC2(CCN(C[C@@H]3CCN(c4nccs4)C3)CC2)c2cc(F)ccc21` [compound 570], in test [1], the Emax was in the range of 25 to 100% and the “M4 Activity” value was “xxx (activity was measured to be less than 2.0 μM)”. For the same molecule, in test [2], the Emax fell in the range of 25 to 100%; the “M1 Activity” value was “xx (activity was measured to be between 2.0 μM and 5.0 μM)”.
In the case of `COCCN1CC2(CCN(C3CCN(C(=O)OC(C)C)CC3)CC2)c2cc(F)ccc21` [compound 571], in test [1], the Emax fell in the range of 25 to 100% and the “M4 Activity” value is listed as “xxx (activity was measured to be less than 2.0 μM)”. Also, in test [2], the Emax is 25 to 100% and the “M1 Activity” value is “xxx (activity was measured to be less than 2.0 μM)”.
In the case of `Cc1noc(C)c1C(=O)N1CCC(N2CCC3(CC2)CN(C(=O)N(C)C)c2ccc(F)cc23)CC1` [compound 572], in test [1], the Emax is < 25% and the “M4 Activity” value is on record as “x (activity was measured to be greater than 5.0 μM)”. Also, in test [2], the Emax lay within 25 to 100%; the “M1 Activity” value is “xx (activity was measured to be between 2.0 μM and 5.0 μM)”.
With `C#CCOC(=O)N1CC[C@H](CN2CCC3(CC2)CN(C(C)=O)c2cccc(C)c23)C1` [compound 573], in test [1], the maximal response (Emax) fell in the range of 25 to 100% and the “M4 Activity” value is reported as “xxx (activity was measured to be less than 2.0 μM)”. In addition, in test [2], the maximal effect (Emax) was 25 to 100% and the “M1 Activity” value was “xxx (activity was measured to be less than 2.0 μM)”.
Consider `C#CC(=O)N1CCC(N2CCC3(CC2)CN(C(=O)N(C)C)c2ccc(F)cc23)CC1` [compound 574], for which, in test [1], the Emax lay within 25 to 100% and the “M4 Activity” value is given as “xxx (activity was measured to be less than 2.0 μM)”. Further, in test [2], the Emax lay within 25 to 100%; the “M1 Activity” value was “xx (activity was measured to be between 2.0 μM and 5.0 μM)”.
As to `CC(=O)N[C@H]1CCC2(CCN(CCC3CCN(C(=O)OC(C)(C)C)CC3)CC2)c2ccccc21` [compound 575], in test [1], the Emax was < 25% and the “M4 Activity” value is “x (activity was measured to be greater than 5.0 μM)”. Besides, in test [2], the Emax was < 25% and the “M1 Activity” value is on record as “x (activity was measured to be greater than 5.0 μM)”.
Take `O=C(N[C@H]1CCC2(CCN(CC3CC4C=CC3C4)CC2)c2ccccc21)C1CC1` (stereo partly drawn) [compound 576]: in test [1], the Emax fell in the range of 25 to 100% and the “M4 Activity” value is reported as “xxx (activity was measured to be less than 2.0 μM)”. For the same molecule, in test [2], the Emax fell in the range of 25 to 100% and the “M1 Activity” value is recorded as “xxx (activity was measured to be less than 2.0 μM)”.
Take `CC(=O)N1CC2(CCN(CC3CC3)CC2)c2cc(F)ccc21` [compound 577]: in test [1], the Emax was < 25% and the “M4 Activity” value is “x (activity was measured to be greater than 5.0 μM)”. In test [2], the Emax was < 25% and the “M1 Activity” value was “x (activity was measured to be greater than 5.0 μM)”.
As to `CCC#CCOC(=O)N1CC[C@H](CN2CCC3(CC2)CN(C(C)=O)c2ccccc23)C1` [compound 578], in test [1], the Emax lay within 25 to 100% and the “M4 Activity” value is “xxx (activity was measured to be less than 2.0 μM)”. In addition, in test [2], the Emax is 25 to 100% and the “M1 Activity” value was “xxx (activity was measured to be less than 2.0 μM)”.
Regarding `CCOC(=O)N1CCC(N2CCC3(CC2)CN(C(C)=O)c2c(F)cc(F)cc23)CC1` [compound 579], in test [1], the Emax fell in the range of 25 to 100% and the “M4 Activity” value was “xxx (activity was measured to be less than 2.0 μM)”. In test [2], the Emax was 25 to 100% and the “M1 Activity” value is listed as “xxx (activity was measured to be less than 2.0 μM)”.
For the molecule `CCOC(=O)N1C2CCC1CC(N1CCC3(CC1)CN(C(C)=O)c1ccc(S(C)(=O)=O)cc13)C2` (stereo not drawn) [compound 580], in test [1], the Emax lay in the range of 25 to 100% and the “M4 Activity” value is “x (activity was measured to be greater than 5.0 μM)”. In test [2], the Emax was 25 to 100% and the “M1 Activity” value is listed as “xxx (activity was measured to be less than 2.0 μM)”.
On to `CC(=O)N[C@H]1CCC2(CCN(CCC3CC4CCC3C4)CC2)c2ccccc21` (stereo partly drawn) [compound 581], for which, in test [1], the Emax is < 25% and the “M4 Activity” value is “xxx (activity was measured to be less than 2.0 μM)”. Also, in test [2], the Emax was 25 to 100% and the “M1 Activity” value was “xxx (activity was measured to be less than 2.0 μM)”.
For `CCOC(=O)N1C2CCC1CC(N1CCC3(CC1)CN(C(C)=O)c1ccc(C(F)(F)F)cc13)C2` (stereo not drawn) [compound 583], in test [1], the maximal response (Emax) lay in the range of 25 to 100% and the “M4 Activity” value is “xxx (activity was measured to be less than 2.0 μM)”. In addition, in test [2], the maximum response (Emax) fell in the range of 25 to 100% and the “M1 Activity” value is reported as “xxx (activity was measured to be less than 2.0 μM)”.
Consider `CN(C)C(=O)N1CC2(CCN(C[C@@H]3CCN(C(=O)OCC4CC4)C3)CC2)c2cc(F)ccc21` [compound 584], for which, in test [1], the Emax was in the range of 25 to 100% and the “M4 Activity” value is recorded as “xxx (activity was measured to be less than 2.0 μM)”. For the same molecule, in test [2], the Emax lay in the range of 25 to 100% and the “M1 Activity” value is “xxx (activity was measured to be less than 2.0 μM)”.
Take `CCOC(=O)N1CCC(N2CCC3(CC2)CN(c2ccccn2)c2ccc(F)cc23)CC1` [compound 585]: in test [1], the Emax is 25 to 100% and the “M4 Activity” value was “xxx (activity was measured to be less than 2.0 μM)”. For the same molecule, in test [2], the Emax lay within 25 to 100% and the “M1 Activity” value was “xxx (activity was measured to be less than 2.0 μM)”.

As usually defined, the Emax is the maximal effect, on the per cent scale that the assay sets.
